Data set [1] has as its system Influenza A virus (A/Puerto Rico/8/1934(H1N1)). The data set is classed as functional, organism-based, pdm09.
Data set [2] can be described thus: Cytotoxicity against dog MDCK cells assessed as cell death incubated for 48 hrs by MTT assay. The data set is classed as cell-based, Canis lupus familiaris. To be noted: read-out: CTD50.
Another data set in a line: in vitro. The note with it: dog, MDCK cells.
Data set [3] concerns Influenza A virus (A/Puerto Rico/8/1934(H1N1)). The data set is classed as functional, organism-based. To be noted: pdm09, 300 umol/l.
The test system is the same in data set [4]. The data set is classed as functional, organism-based. To be noted: pdm09, 300 umol/l. This is another data set of the same source.
The mark [5] stands for this setting: Influenza A virus, pdm09, MDCK, read-out: IC50.

Active and inactive are the calls of the source. The rule behind the calls is not given here.

Description for in vitro: Selectivity index, ratio of CTD50 for dog MDCK cells to IC50 for Influenza A virus (A/Puerto Rico/8/34 (H1N1)) pdm09 infected in MDCK cells

For `CC1CCN(CC/N=C2\C[C@H]3CC[C@]2(C)C3(C)C)CC1`, the concentration for half-maximal inhibition (IC50) – broadly, the concentration that gives 50% inhibition – in data set [1] (setting [5]) is 25 µM. The CC50 at 48 h in data set [2] was 294 µM. In addition, in the data set “in vitro”, the selectivity ratio worked out at 12.

Turning to `CC1(C)[C@@H]2CC[C@@]1(C)/C(=N/CCSc1nc3ccccc3s1)C2`, in data set [1] (setting [5]), the IC50 stood at 19 µM. Besides, in data set [2], the CC50 at 48 h was determined as 383 µM. In “in vitro”, the selectivity ratio turned out to be 20.

`CC1(C)[C@@H]2CC[C@@]1(C)/C(=N/CCN1CCCCC1)C2`: the 50% inhibitory concentration (IC50) in data set [1] (setting [5]) came out at 27 µM. In data set [2], the CC50 at 48 h was above 1140 µM. Besides, the selectivity ratio in “in vitro” amounted to 43.

For `CC(N)C12CC3CC(CC(C3)C1)C2` (stereo unspecified) [RIMANTADINE], in data set [1] (setting [5]), the IC50 amounted to 67 µM. In addition, in the data set “in vitro”, the selectivity ratio was 5.

On to `CC1(C)[C@@H]2CC[C@@]1(C)/C(=N/CCSc1nnc[nH]1)C2`, for which, in data set [1] (setting [5]), the IC50 came out at 24 µM. Besides, in data set [2], the CC50 at 48 h was 197 µM. In the data set “in vitro”, the selectivity ratio was 8.

For `NC(=O)c1ncn([C@@H]2O[C@H](CO)[C@@H](O)[C@H]2O)n1` [RIBAVIRIN], the IC50 in data set [1] (setting [5]) came out at 25 µM. Also, the CC50 at 48 h in data set [2] is above 2000 µM. Besides, in the data set “in vitro”, the selectivity ratio is above 81.

Consider `CC1(C)[C@@H]2CC[C@@]1(C)/C(=N/CCSC1=NCCS1)C2`, for which, in data set [1] (setting [5]), the IC50 came to 33 µM. The CC50 at 48 h in data set [2] was 753 µM. The selectivity ratio in “in vitro” stood at 23.

In the case of `Cn1ccnc1SCC/N=C1\C[C@H]2CC[C@]1(C)C2(C)C`, the IC50 in data set [1] (setting [5]) was determined as 341 µM. For the same compound, the CC50 at 48 h in data set [2] turned out to be 1130 µM. For the same compound, the selectivity ratio in “in vitro” amounted to 3.

Take `CN1CCN(CC/N=C2\C[C@H]3CC[C@]2(C)C3(C)C)CC1`: the 50% inhibitory concentration (IC50) in data set [1] (setting [5]) was 45 µM. Besides, the CC50 at 48 h in data set [2] was 1080 µM. Further, the selectivity ratio in the data set “in vitro” is 24.

On to `NC12CC3CC(CC(C3)C1)C2` [AMANTADINE], for which the IC50 in data set [1] (setting [5]) is 64 µM. The selectivity ratio in “in vitro” was found to be 4.

Take `CC1(C)[C@@H]2CC[C@@]1(C)/C(=N/CCSc1ccc(Cl)cc1)C2`: the IC50 in data set [1] (setting [5]) was determined as 47 µM. Besides, the CC50 at 48 h in data set [2] is 170 µM. Moreover, in the data set “in vitro”, the selectivity ratio was determined as 4.

As to `CCN1CCN(CC/N=C2\C[C@H]3CC[C@]2(C)C3(C)C)CC1`, the concentration for half-maximal inhibition (IC50) in data set [1] (setting [5]) amounted to 101 µM. Moreover, the CC50 at 48 h in data set [2] worked out at 222 µM. Also, the selectivity ratio in “in vitro” was found to be 2.

On to `CC1(C)[C@@H]2CC[C@@]1(C)/C(=N/CCN1CCCC1)C2`, for which the IC50 in data set [1] (setting [5]) was 12 µM. For the same compound, in data set [2], the CC50 at 48 h was above 1260 µM. Also, the selectivity ratio in “in vitro” stood at 106.

`CC1(C)[C@@H]2CC[C@@]1(C)/C(=N/CCSc1ccccn1)C2`: the concentration for half-maximal inhibition (IC50) in data set [1] (setting [5]) came to 6 µM. Besides, the CC50 at 48 h in data set [2] amounted to 503 µM. The selectivity ratio in “in vitro” amounted to 91.

With `CC1(C)[C@@H]2CC[C@@]1(C)/C(=N/CCSc1nc3ccccc3[nH]1)C2`, the 50% inhibitory concentration (IC50) in data set [1] (setting [5]) is 21 µM. In data set [2], the CC50 at 48 h was determined as 406 µM. In “in vitro”, the selectivity ratio was 20.

For the compound `CC1(C)[C@@H]2CC[C@@]1(C)/C(=N/CCO)C2`, the IC50 in data set [1] (setting [5]) amounted to 5000 µM. The selectivity ratio in “in vitro” stood at 500.

For the compound `CC1(C)[C@@H]2CC[C@@]1(C)/C(=N/CCN1CCNCC1)C2`, the IC50 in data set [1] (setting [5]) was found to be 37 µM. Also, in data set [2], the CC50 at 48 h came out at 1200 µM. Also, the selectivity ratio in “in vitro” was found to be 33.

`CC1(C)[C@@H]2CC[C@@]1(C)/C(=N/CCSc1ncccn1)C2`: the concentration for half-maximal inhibition (IC50) in data set [1] (setting [5]) was 6 µM. The CC50 at 48 h in data set [2] is above 1020 µM. In addition, the inhibition entry in data set [3] was “Active”. For the same compound, the inhibition result in data set [4] is “inactive”. The selectivity ratio in “in vitro” amounted to 183.

With `CC1(C)[C@@H]2CC[C@@]1(C)/C(=N/CCN1CCC(O)CC1)C2`, in data set [1], the IC50 result is recorded as “Not Active”. For the same compound, in data set [2], the CC50 at 48 h is above 1030 µM. In “in vitro”, the selectivity ratio was 1.

These data come from ChEMBL document CHEMBL4406883, “Synthesis and structure-activity relationships of novel camphecene analogues as anti-influenza agents” (Bioorg Med Chem Lett, 2019).
